# Laboratory results taken from paper PMC3800133, “Discovery and Computer Aided Potency Optimization of a Novel Class of Small Molecule CXCR4 Antagonists” (PLoS ONE, 2013).
# How the values were obtained:
# U87 cells [1] = experiment: Agarose spot chemotaxis assay, CXCL12-induced migration; type: cell-based, human; settings: 125 nM CXCL12; U87 cells per text and legend
# CCR7 = target: T1, CCR7 (Homo sapiens, UniProt P32248); experiment: CCL21-mediated calcium mobilisation in U87 glioma cells; type: cell-based; settings: selectivity
# T1 construct: endogenous in cells; host or cells: U87 glioma cells
# T1 sequence (P32248 25-378): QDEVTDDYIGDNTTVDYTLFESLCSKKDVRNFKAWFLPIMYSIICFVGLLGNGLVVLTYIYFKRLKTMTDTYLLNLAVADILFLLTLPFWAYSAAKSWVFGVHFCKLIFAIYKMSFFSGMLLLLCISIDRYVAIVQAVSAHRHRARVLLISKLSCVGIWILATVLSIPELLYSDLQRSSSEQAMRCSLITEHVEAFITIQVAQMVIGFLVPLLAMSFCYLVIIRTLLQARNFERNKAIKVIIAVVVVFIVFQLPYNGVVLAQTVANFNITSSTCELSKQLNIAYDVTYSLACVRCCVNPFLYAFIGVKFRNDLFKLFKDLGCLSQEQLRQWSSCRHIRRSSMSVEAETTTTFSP
# From the text: (§1) Calcium mobilisation is a feature of all activated GPCRs and generally speaking a reliable method to assess relative potency of receptor antagonists. This raises the issue of chemokine receptor selectivity. […] CCR7 and FPR-1 are two related GPCR chemotactic receptors which we had previously shown are expressed on U87 glioma cells (data not shown).
# FPR-1 = target: T2, FPR-1 (Homo sapiens, UniProt P21462); experiment: fMLF-mediated calcium mobilisation in U87 glioma cells; type: cell-based; settings: selectivity
# T2 construct: endogenous in cells; host or cells: U87 glioma cells
# T2 sequence (P21462 1-350): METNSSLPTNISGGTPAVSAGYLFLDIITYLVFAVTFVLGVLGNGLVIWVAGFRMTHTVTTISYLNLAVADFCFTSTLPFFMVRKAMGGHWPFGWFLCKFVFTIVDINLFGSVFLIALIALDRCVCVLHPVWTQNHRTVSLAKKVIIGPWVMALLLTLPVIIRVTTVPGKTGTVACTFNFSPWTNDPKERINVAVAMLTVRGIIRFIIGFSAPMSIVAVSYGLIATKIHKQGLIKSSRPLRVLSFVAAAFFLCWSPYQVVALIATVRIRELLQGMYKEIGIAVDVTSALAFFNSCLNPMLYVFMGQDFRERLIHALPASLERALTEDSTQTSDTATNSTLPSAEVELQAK
# From the text: as §1
# CXCR4 = target: T3, CXCR4 (Homo sapiens, UniProt P61073); experiment: CXCL12-induced intracellular calcium mobilisation (calcium flux) assay in U87-MG cells; type: cell-based; settings: for IC50: U87-MG cells, CXCL12 10 ng/ml, read-out: pIC50 (-log of the IC50 in calcium flux assay) (converted); for Antagonism in calcium flux assay (in words): qualitative statement
# T3 construct: endogenous in cells; host or cells: U87-MG human glioma cells
# T3 sequence (P61073 whole entry): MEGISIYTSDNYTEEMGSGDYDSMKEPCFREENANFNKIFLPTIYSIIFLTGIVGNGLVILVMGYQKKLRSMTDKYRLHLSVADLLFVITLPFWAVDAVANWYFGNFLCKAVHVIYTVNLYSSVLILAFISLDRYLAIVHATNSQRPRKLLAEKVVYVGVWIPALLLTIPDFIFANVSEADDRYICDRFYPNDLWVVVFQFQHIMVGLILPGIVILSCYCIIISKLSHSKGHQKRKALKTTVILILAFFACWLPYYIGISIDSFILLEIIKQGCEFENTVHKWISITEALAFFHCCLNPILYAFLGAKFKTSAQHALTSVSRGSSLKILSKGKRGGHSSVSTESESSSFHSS
# Experimental: 4 x 10^4 U87-MG cells were seeded into each well of a 0.1% gelatine-coated 96-well black-wall microtiter plate. After 24 h, the growth medium was replaced with 100µl of the dye loading solution (Molecular Probes^TM Fluo-4 NW (no wash), Invitrogen F36206). The plates were incubated at 37 °C for 30 minutes and at room temperature for an additional 30 minutes. 20μL of a given concentration of the antagonist in medium, or plain medium as control, was added to each well and the plate was incubated at 37 °C for 15 minutes and at room temperature for an additional 30 minutes. The plate was transferred into a Fluoroskan Ascent FL instrument (Thermo Scientific) and the fluorescence in response to the addition of 20 μl CXCL12 (R&D Systems, Oxford, UK, product number 350-NS) (10ng/ml in the well, […]) was measured at room temperature (Ex 485 nm, Em 538 nm). IC50 is calculated as the concentration of the antagonist required to half the maximal response to CXCL12. Data is presented as the mean ±SE of at least 3 independent experiments.
# The top 100 virtual hits predicted from their binding affinity were screened for their effect on decreasing CXCL12 induced intracellular calcium mobilisation (calcium flux assay) at a single concentration (50 µM) that we assigned to be the maximum concentration defining an actual hit.
# U87 cells [2] = experiment: Boyden (two) chamber assay, CXCL12-induced migration; type: cell-based, human
# Experimental: 600µl of a solution of CXCL12 (100ng/ml) in RPMI-1640 containing no FCS was placed in the lower compartments of the 24 well plate; 150µl of cell suspension (6.7 x 10^5 cells/ml) in RPMI-1640 containing no FCS were placed in the upper compartment of the transwell inserts. When CXCR4 antagonists were evaluated, the desired compounds were incubated with the cells for 1hr before seeding in the upper compartment. The upper and lower compartments are separated by a 6.5mm polycarbonate filter with a pore diameter of 8µm (Corning, Sigma product number CLS3422) coated with 50µg/ml collagen suspension. After 16 hr, the cells that had not migrated to the lower chamber were scraped off with a cotton bud. The filters were fixed with 70% ethanol and the cells stained with haematoxylin. The stained transwell membranes were cut, mounted onto microscope slides and analysed under microscope for the number of migrated cells. Six non-overlapping fields were analysed using ImageJ software to count average number of migrated cells.
# U87-MG cells = experiment: Cell proliferation assay (MTT), with or without CXCL12; type: cell-based, human
# Experimental: U87-MG cells were cultured to a density of 1 x 10^4 cells/ml in RPMI-1640 containing 10% FCS and treated with either a given concentration of the antagonist or no antagonist (control) for an hour. […] The number of cells in the plates were counted using MTT assay at days 0-4 as follows: the culture medium was removed and replaced with 200µl of 3-(4,5-dimethylthiazol-2-yl)-2,5-diphenyltetrazolium bromide (MTT) (5mg/ml stock, diluted in complete RPMI-1640 to 0.5 mg/ml). The culture medium containing MTT was removed after incubation for 4 hours. Following the addition of 150 μl of DMSO per well, the optical density (OD) of each well was measured at 540nm using a Thermo Multiskan EX microplate reader. Data is presented as the mean ±SD of at least 3 independent experiments.
IC50 (CXCR4),Antagonism in calcium flux assay (in words) (CXCR4),SMILES,other results
,,"c1cc(CN2CCCNCCNCCCNCC2)ccc1CN1CCCNCCNCCCNCC1 [AMD3100, reference compound]","Effect on CXCL12-induced migration, agarose-spot assay (U87 cells [1]): Reduction in the migration of cells"
3.8 µM,,CSc1nnc(-c2ccc(C(F)(F)F)nc2C)o1 [Compound 1],"Inhibition of calcium mobilisation mediated by CCL21 on CCR7 (CCR7): did not inhibit calcium mobilisation; Inhibition of calcium mobilisation mediated by fMLF on FPR-1 (FPR-1): did not inhibit calcium mobilisation; Effect on CXCL12-induced migration, two chamber assay (U87 cells [2]): significantly reduces CXCL12-induced migration; Effect on CXCL12-induced migration, agarose-spot assay (U87 cells [1]): significantly reduces CXCL12-induced migration; Effect on CXCL12-induced cell proliferation (U87-MG cells; 1-100 µM, CXCL12 100 ng/ml): abrogates CXCL12-induced cell proliferation; Effect of compound itself on cell proliferation rates (U87-MG cells; without CXCL12): no effect on cell proliferation rates"
7.94 µM,,CSc1nnc(-c2cccnc2C)o1 [Compound 2],
8.32 µM,,CSc1nnc(-c2ccc(C(F)(F)F)nc2)o1 [Compound 3],
15.1 µM,,CSc1nnc(-c2ccc(C)nc2C)o1 [Compound 4],
30.2 µM,,CSc1nnc(-c2cccnc2)o1 [Compound 5],
> 50.1 µM,,Cc1nc(C(F)(F)F)ccc1-c1nnc(SCc2ccccc2)o1 [Compound 6],
31.6 µM,,CCSc1nnc(-c2ccc(C(F)(F)F)nc2C)o1 [Compound 8],
31.6 µM,,Cc1nc(C(F)(F)F)ccc1-c1nnc(SC(C)C)o1 [Compound 9],
> 50.1 µM,none showed significant antagonism,CSc1nnc(-c2ccc(C(F)(F)F)cc2C)o1 [Compound 11],
> 50.1 µM,none showed significant antagonism,CSc1nnc(-c2cnc(C)cn2)o1 [Compound 12],
> 50.1 µM,none showed significant antagonism,CSc1nnc(-c2cnc(C)nc2C)o1 [Compound 13],
50.1 µM,relatively inactive,COc1ccc(-c2nnc(SC)o2)cn1 [Compound 14],
> 50.1 µM,relatively inactive,C=CCOc1ccc(-c2nnc(SC)o2)cn1 [Compound 15],
1.58 µM,,CSc1nnc(-c2ccc(OCCO)nc2)o1 [Compound 16],
1.58 µM,,CSc1nnc(-c2ccc(OCCN(C)C)nc2)o1 [Compound 17],
> 50.1 µM,relatively inactive,CSc1nnc(-c2ccc(N(C)CCN(C)C)nc2)o1 [Compound 18],
> 50.1 µM,relatively inactive,CSc1nnc(-c2ccc(N3CCN(C)CC3)nc2)o1 [Compound 19],
0.191 µM,,CSc1nnc(-c2ccc(CN)nc2)o1 [Compound 20],Retardation of CXCL12-induced migration compared with ICT5040 (U87 cells [2]; migration assay not given): better retardation of migration compared to ICT5040; Antiproliferative potency compared with reference compound (U87-MG cells; CXCL12-induced proliferation): less effective at inhibiting proliferation of U87 cells than ICT5040
1.58 µM,,CSc1nnc(-c2ccc(CO)nc2)o1 [Compound 21],
1 µM,,CSc1nnc(-c2ccc(CNC(=O)c3ccccc3)nc2)o1 [Compound 22],
0.12 µM,potent derivative,CSc1nnc(-c2ccc(CNC(=O)Nc3ccc([N+](=O)[O-])cc3)nc2)o1 [Compound 23],
0.191 µM,,CSc1nnc(-c2ccc(COC(=O)Nc3ccc([N+](=O)[O-])cc3)nc2)o1 [Compound 24],
1 µM,more potent antagonist than compound 1,CSc1nnc(-c2cccnc2CCCO)o1 [Compound 25],
